From ChEMBL document CHEMBL1201862, “PubChem BioAssay data set” (2004)
Calls of active or inactive are those of the source.

Assays:
Genome polyprotein = Genome polyprotein (dengue virus type 2, UniProt P29990); test: flavivirus cap methylation enzyme inhibition – biochemical, confirmation dose response, primary screen (AID 588689); assay type: functional
[1] = molecular target: DNA damage-inducible transcript 3 protein (Mus musculus, UniProt P35639); assay type: functional, Cricetulus griseus
X-box-binding protein 1 = X-box-binding protein 1 (Homo sapiens, UniProt P17861); assay type: functional, Cricetulus griseus;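 also: confirmatory dose-response counter-screen serving a CHOP assay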
X-box-binding protein 1, sequence (P17861 whole entry): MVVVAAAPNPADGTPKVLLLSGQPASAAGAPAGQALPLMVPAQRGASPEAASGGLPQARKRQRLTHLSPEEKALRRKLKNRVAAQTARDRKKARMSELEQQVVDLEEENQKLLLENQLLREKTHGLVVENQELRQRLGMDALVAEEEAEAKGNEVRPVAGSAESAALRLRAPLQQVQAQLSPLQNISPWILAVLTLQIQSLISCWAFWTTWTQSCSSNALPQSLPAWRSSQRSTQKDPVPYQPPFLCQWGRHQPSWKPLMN

[2] = Luminescence Cell-Based Dose Response HTS to Identify Activators of 5'UTR Stem-Loop Driven Prion Protein mRNA Translation in H4-C Neuroglioblastoma Cells. [Related pubchem assays: 1829 (Project Summary), 1814 (Primary HTS)]; assay type: functional
[3] = Luminescence Cell-Based Dose Response HTS to Identify Inhibitors of Luciferase Translation or Activity in H4-C Neuroglioblastoma Cells. [Related pubchem assays: 1813 (Primary HTS), 1827 (Project Summary)]; assay type: functional
[4] = Luminescence Cell-Based Dose Confirmation HTS to Identify Inhibitors of 5'UTR Stem-Loop Driven Alpha-Synuclein mRNA Translation in H4 Neuroglioblastoma Cells. [Related pubchem assays: 1827 (Project Summary), 1813 (Primary HTS)]; assay type: functional
[5] = Luminescence Cell-Based Dose Retest to Confirm Activators of 5'UTR Stem-Loop Driven Alpha-Synuclein mRNA Translation in H4 Neuroglioblastoma Cells. [Related pubchem assays (depositor defined):AID1813, AID1829]; assay type: functional
[6] = Luminescence Cell-Based Dose HTS Response to Identify Inhibitors of 5'UTR Stem-Loop Driven Prion Protein mRNA Translation in H4-C Neuroglioblastoma Cells. [Related pubchem assays (depositor defined):AID1814, AID1827]; assay type: functional
[7] = Luminescence Cell-Based Dose Response HTS to Identify Activators of Luciferase Translation or Activity in H4-C Neuroglioblastoma Cells. [Related pubchem assays: 1829 (Project Summary), 1814 (Primary HTS)]; assay type: functional
[8] = compound autofluorescence in calcium buffer – biochemical, fluorescence, no RTF in test wells, artefact control for cardiac thin filament activator project, dose response (AID 504697)
Troponin, cardiac muscle = Troponin, cardiac muscle (Homo sapiens, UniProt P19429+P45379+P63316); test: Fluorescence-based biochemical high throughput dose response assay for activators of the calcium sensitivity of cardiac Regulated Thin Filaments (RTF). [Related pubchem assays (depositor defined):AID493008, AID493018, AID504382, AID504383]; assay type: protein-complex assay
ORF 73 = ORF 73 (Human herpesvirus 8, UniProt O40947); test: KSHV LANA DNA-binding disruption – biochemical, fluorescence polarization, cherry-picked samples, dose response (AID 504725); design: species or system Human gammaherpesvirus 8;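 also: fluorescence polarization of a labeled DNA duplex reporting LANA DNA binding; potency is for inhibitors that block LANA binding to the DNA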
ORF 73, sequence (O40947 whole entry): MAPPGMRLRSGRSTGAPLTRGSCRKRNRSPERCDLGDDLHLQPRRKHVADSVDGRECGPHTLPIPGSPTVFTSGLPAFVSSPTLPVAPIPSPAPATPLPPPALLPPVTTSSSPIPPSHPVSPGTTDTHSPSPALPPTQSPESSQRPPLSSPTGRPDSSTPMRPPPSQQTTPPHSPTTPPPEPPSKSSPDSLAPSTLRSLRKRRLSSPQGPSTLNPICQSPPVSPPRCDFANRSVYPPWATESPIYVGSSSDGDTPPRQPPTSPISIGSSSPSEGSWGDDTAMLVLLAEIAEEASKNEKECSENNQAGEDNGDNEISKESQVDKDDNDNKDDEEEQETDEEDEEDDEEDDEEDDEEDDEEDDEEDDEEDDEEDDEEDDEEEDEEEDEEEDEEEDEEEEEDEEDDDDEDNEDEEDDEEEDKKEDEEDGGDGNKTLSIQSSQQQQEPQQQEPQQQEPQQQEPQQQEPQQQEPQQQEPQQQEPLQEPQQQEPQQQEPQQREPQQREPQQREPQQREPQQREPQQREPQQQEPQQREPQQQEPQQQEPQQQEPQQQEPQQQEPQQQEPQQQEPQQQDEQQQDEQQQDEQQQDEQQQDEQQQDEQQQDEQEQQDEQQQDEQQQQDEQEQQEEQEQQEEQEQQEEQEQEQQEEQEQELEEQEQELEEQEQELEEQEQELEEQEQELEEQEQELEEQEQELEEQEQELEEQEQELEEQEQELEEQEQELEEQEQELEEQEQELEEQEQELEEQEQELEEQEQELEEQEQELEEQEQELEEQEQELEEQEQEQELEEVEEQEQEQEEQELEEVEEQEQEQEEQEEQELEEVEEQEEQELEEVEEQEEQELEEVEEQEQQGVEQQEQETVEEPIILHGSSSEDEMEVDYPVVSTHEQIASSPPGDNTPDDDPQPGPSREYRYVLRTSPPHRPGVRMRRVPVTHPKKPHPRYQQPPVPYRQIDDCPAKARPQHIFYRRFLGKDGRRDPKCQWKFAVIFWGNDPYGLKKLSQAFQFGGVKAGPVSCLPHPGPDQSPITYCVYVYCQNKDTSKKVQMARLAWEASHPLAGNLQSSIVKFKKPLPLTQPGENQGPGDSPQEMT

Salmon testes DNA = test: acridine orange-DNA binding displacement – biochemical, fluorescence polarization, cherry-picked samples, set 2, artefact control for KSHV LANA DNA-binding inhibitor project, dose response (AID 504727); design: species or system Salmonidae
Keap1/Nrf2 = Keap1/Nrf2 (Homo sapiens, UniProt Q14145); test: disruptors of Keap1 binding to Nrf2 peptide – biochemical, fluorescence polarization, cherry-picked samples, dose response (AID 588683)
[9] = molecular target: T1, Tyrosine-protein phosphatase non-receptor type 7 (Homo sapiens, UniProt P35236); test: SAR analysis of chemical inhibitors of HePTP using a Fluorescent assay - Set 2. [Related pubchem assays (depositor defined):AID1059, AID1077, AID1661, AID2085, AID521]; assay type: functional
T1 sequence (P35236 whole entry): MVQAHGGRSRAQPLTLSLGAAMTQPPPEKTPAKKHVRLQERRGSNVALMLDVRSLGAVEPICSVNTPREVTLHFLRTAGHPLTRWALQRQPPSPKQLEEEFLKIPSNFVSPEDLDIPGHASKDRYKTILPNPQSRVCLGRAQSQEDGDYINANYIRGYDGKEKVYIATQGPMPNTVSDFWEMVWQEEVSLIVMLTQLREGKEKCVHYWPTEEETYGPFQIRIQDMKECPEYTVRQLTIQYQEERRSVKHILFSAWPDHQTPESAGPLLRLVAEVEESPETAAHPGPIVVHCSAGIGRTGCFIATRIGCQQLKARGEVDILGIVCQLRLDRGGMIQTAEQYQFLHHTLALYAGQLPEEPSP

[10] = molecular target: Dual specificity protein phosphatase 3 (Homo sapiens, UniProt P51452); test: SAR VHR1 Fluorescent Assay for In Vitro dose response studies Set 2. [Related pubchem assays (depositor defined):AID1654, AID1661, AID1878]; assay type: functional
Dual specificity protein phosphatase 3, sequence (P51452 whole entry): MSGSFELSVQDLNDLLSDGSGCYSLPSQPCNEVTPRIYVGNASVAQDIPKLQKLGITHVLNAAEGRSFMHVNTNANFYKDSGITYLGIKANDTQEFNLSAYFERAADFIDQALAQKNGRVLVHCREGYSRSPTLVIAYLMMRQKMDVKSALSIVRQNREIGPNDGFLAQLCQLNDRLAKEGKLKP

[11] = molecular target: Alkaline phosphatase, placental type (Homo sapiens, UniProt P05187); test: human placental alkaline phosphatase inhibition – biochemical, luminescence, confirmation (AID 1512); assay type: functional
Alkaline phosphatase, placental type, sequence (P05187 whole entry): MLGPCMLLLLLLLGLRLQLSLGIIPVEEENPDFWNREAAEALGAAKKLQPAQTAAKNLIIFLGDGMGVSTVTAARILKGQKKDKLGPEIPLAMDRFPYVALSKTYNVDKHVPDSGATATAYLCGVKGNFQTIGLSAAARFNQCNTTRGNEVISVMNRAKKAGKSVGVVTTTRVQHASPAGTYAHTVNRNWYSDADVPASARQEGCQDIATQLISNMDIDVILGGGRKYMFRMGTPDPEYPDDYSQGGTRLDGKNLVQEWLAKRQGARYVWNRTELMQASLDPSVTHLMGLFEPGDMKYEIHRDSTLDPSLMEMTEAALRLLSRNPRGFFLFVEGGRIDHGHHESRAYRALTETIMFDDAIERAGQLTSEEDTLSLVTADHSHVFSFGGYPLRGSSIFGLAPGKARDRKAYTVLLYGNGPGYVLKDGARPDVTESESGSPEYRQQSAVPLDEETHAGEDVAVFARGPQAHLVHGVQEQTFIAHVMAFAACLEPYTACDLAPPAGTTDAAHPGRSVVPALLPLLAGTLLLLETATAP

BJ [12] = test: BJ-TERT fibroblast viability loss – cell-based, RAS-independent, luminescence, dose response (AID 1933); assay type: functional; settings: Homo sapiens
[13] = DRD fibroblast viability loss – cell-based, non-viral oncogenic, luminescence, dose response (AID 1934); assay type: functional; settings: Homo sapiens
BJ [14] = test: cells; assay type: functional, cell-based; settings: Homo sapiens
[15] = alpha-synuclein stem-loop luciferase translation blockers – H4 neuroglioma cells, luminescence, confirmation (AID 1988); assay type: functional, cell-based
INS1 = test: INS-1E survival protection against cytokine death – cell-based, luminescence, retest, dose response (AID 449756); assay type: functional; settings: Rattus norvegicus;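 also: cell death triggered by IL-1 beta plus TNF-alpha plus IFN-gamma mixture; protective hits raise ATP signal compared with cytokine alone wells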
BJ [16] = test: BJ-TERT-LT-ST fibroblast viability loss – cell-based, RAS-independent, luminescence, dose response (AID 1935); assay type: functional; settings: Homo sapiens;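 also: BJ fibroblasts immortalized with TERT plus LT and ST oncogenes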
[17] = luciferase reporter signal suppression in cells – H4 neuroglioma cells, luminescence, dose response (AID 1990); assay type: functional, cell-based
[18] = Luminescence Cell-Based Dose Response HTS to Identify Inhibitors of 5'UTR Stem-Loop Driven Prion Protein mRNA Translation in H4 Neuroglioblastoma Cells. [Related pubchem assays: 1827 (Project Summary), 1813 (Primary HTS)]; assay type: functional
[19] = NIH-3T3 fibroblast cytotoxicity, dose response, cytotoxicity control, cell-based, fluorescence, Alamar Blue, secondary assay (AID 2327); assay type: functional;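 also: NIH-3T3 mouse fibroblasts cultured with fluconazole at 8 µg/mL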
[20] = fluconazole-exposed Candida albicans growth modulators – fluorescence, retest, confirmation (AID 2467); assay type: functional, cell-based
CAAX prenyl protease 2 = CAAX prenyl protease 2 (Saccharomyces cerevisiae S288c, UniProt Q03530); assay type: biochemical
CAAX prenyl protease 2, sequence (Q03530 whole entry): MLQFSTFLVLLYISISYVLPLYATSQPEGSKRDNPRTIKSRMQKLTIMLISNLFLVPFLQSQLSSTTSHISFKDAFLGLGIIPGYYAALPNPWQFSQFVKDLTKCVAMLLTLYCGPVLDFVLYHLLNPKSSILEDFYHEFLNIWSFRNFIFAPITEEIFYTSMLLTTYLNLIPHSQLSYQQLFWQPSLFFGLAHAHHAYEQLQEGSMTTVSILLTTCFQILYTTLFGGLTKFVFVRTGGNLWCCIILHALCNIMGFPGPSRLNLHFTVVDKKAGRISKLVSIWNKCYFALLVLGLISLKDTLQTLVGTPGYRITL

Cannabinoid receptor 2 [21] = molecular target: T2, Cannabinoid receptor 2 (Homo sapiens, UniProt P34972); test: SAR analysis of agonists of the Cannabinoid Receptor 2 using an Image-Based Assay - Set 2. [Related pubchem assays (depositor defined):AID1961, AID1965]; assay type: functional
T2 sequence (P34972 whole entry): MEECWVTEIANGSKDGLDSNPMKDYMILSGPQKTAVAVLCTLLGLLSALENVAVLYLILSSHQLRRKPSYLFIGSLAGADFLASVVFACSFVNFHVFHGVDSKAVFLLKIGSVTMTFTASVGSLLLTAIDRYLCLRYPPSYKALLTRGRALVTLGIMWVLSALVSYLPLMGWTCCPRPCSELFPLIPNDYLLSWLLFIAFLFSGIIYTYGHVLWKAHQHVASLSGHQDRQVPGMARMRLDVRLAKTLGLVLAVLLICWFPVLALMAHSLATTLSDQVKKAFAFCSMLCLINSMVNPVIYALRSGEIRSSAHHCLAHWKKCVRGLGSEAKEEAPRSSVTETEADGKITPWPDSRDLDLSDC

Cannabinoid receptor 2 [22] = molecular target: T2, Cannabinoid receptor 2; test: SAR analysis of antagonists of the Cannabinoid Receptor 2 using an Image-Based Assay - Set 2. [Related pubchem assays (depositor defined):AID1961, AID1965]; assay type: functional
[23] = molecular target: T3, G-protein coupled receptor 35 (Homo sapiens, UniProt Q9HC97); test: SAR analysis of Agonists of the GPR35 Receptor using an Image-Based Assay - Set 3. [Related pubchem assays (depositor defined):AID1961, AID1965]; assay type: functional
T3 sequence (Q9HC97 whole entry): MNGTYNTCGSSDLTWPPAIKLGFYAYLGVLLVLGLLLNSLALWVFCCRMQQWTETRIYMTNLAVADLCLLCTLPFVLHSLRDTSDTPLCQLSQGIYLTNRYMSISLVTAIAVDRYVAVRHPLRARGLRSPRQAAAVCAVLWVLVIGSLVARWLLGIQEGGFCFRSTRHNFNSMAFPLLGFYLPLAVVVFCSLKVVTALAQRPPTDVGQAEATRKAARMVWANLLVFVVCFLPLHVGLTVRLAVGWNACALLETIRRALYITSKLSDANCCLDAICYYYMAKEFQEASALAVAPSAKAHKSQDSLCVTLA

Cannabinoid receptor 1 [24] = molecular target: T4, Cannabinoid receptor 1 (Homo sapiens, UniProt P21554); test: SAR analysis of agonists of the Cannabinoid Receptor 1 using an Image-Based Assay - Set 3. [Related pubchem assays (depositor defined):AID1961, AID1965]; assay type: functional
T4 sequence (P21554 whole entry): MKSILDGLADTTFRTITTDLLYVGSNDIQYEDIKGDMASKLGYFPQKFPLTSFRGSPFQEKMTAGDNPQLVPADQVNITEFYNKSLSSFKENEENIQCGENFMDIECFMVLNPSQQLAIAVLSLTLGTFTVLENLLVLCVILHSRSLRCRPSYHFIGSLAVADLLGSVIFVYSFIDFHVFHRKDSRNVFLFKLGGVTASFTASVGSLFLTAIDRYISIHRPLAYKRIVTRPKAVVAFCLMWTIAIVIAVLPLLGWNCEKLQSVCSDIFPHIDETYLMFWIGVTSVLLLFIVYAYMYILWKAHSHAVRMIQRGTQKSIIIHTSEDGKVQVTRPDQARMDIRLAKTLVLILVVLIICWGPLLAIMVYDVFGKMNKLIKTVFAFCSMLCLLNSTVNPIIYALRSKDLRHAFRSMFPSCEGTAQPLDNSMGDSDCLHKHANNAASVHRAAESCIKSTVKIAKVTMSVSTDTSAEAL

[25] = molecular target: G-protein coupled receptor 55 (Homo sapiens, UniProt Q9Y2T6); test: SAR analysis of selective Agonists of GPR55 using an Image-Based Assay - Set 2. [Related pubchem assays (depositor defined):AID1961, AID1965]; assay type: functional
G-protein coupled receptor 55, sequence (Q9Y2T6 whole entry): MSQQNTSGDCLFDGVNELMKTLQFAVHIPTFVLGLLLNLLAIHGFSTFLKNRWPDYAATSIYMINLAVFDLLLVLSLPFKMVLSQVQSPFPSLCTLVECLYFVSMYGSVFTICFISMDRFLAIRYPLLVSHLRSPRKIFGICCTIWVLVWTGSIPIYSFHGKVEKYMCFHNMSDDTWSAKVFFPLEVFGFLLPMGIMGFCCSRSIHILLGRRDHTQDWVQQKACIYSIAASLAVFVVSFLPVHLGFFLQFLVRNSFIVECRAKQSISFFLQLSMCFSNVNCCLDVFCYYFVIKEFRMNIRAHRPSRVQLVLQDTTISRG

[26] = molecular target: T3, G-protein coupled receptor 35; test: SAR analysis of Antagonists of the GPR35 Receptor using an Image-Based Assay - Set 4. [Related pubchem assays (depositor defined):[…]]; assay type: functional
Cannabinoid receptor 1 [27] = molecular target: T4, Cannabinoid receptor 1; test: SAR analysis of antagonists of the Cannabinoid Receptor 1 using an Image-Based Assay - Set 3. [Related pubchem assays (depositor defined):AID1961, AID1965]; assay type: functional
[28] = A small molecule screen for inhibitors of the PhoP region in Salmonella typhi (5) using purified and synthesized compounds. [Related pubchem assays (depositor defined):AID1850, AID1864, AID1985, AID2252, AID2384, AID2612, AID2811, AID434995]; assay type: functional
[29] = molecular target: Sphingosine 1-phosphate receptor 4 (Homo sapiens, UniProt O95977); test: Late-stage fluorescence dose response cell-based assay to identify agonists of the Sphingosine 1-Phosphate Receptor 4 (S1P4): purchased compounds EC50. [Related pubchem assays (depositor defined):AID1509, AID1523, AID1563, AID1686, AID1701, AID1801]; assay type: functional
Sphingosine 1-phosphate receptor 4, sequence (O95977 whole entry): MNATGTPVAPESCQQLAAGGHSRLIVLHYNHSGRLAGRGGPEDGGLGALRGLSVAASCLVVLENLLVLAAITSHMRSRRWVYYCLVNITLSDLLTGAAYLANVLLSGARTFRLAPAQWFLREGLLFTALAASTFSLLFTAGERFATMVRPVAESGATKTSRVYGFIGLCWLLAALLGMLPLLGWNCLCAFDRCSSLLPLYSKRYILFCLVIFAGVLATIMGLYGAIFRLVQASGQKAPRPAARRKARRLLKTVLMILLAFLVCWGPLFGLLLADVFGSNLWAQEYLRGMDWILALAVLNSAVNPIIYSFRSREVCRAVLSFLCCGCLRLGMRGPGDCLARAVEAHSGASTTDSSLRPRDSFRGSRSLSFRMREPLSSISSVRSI

[30] = molecular target: Intestinal-type alkaline phosphatase (Homo sapiens, UniProt P09923); test: human intestinal alkaline phosphatase activators, dose response, biochemical, luminescence, uHTS hits (AID 463120); assay type: functional
Intestinal-type alkaline phosphatase, sequence (P09923 whole entry): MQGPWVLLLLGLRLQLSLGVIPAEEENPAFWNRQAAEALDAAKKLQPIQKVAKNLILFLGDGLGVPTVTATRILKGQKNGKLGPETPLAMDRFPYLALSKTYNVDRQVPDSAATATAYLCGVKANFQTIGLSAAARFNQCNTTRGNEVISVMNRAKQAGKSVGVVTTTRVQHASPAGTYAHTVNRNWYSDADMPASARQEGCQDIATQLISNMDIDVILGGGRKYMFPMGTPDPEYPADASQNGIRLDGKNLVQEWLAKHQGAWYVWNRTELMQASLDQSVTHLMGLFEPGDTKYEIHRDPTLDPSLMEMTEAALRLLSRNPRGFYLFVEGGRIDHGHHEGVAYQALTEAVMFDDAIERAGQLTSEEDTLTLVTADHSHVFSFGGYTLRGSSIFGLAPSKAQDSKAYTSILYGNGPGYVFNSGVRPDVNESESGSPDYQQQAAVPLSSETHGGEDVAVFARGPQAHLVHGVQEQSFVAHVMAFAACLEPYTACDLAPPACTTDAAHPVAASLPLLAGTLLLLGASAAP

DNA damage-inducible transcript 3 protein, sequence (P35639 whole entry): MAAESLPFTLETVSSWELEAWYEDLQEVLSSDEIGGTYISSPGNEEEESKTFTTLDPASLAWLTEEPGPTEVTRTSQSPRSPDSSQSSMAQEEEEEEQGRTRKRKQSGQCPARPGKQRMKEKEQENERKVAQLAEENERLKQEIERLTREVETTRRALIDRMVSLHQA

Nc1cccc2c1C(=O)N(C(=O)/C=C/c1cccc(F)c1)C2=O
IC50 (Genome polyprotein): > 100 µM (active) | Absolute IC50 (CHOP) [1]: < 10 µM | Absolute IC50 (XBP1) (X-box-binding protein 1): 10 µM

COc1ccc2c(c1)sc(N)[n+]2Cc1cc(C)cc2cccnc12
EC50 [2]: 0.711 µM (inconclusive) | EC50 [3]: 10.3 µM (active) | EC50 [4]: 6.36 µM (active) | EC50 [5]: 6.36 µM (inconclusive) | EC50 [6]: 0.711 µM (active) | EC50 [7]: 10.3 µM (inconclusive)

CN1CC=C2C(C#N)=C(N)C(C#N)(C#N)[C@H](c3ccoc3)[C@H]2C1
EC50 [8]: > 7.94 µM (active) | EC50 (Troponin, cardiac muscle): 8.32 µM (active) | AC50 (ORF 73): 58.9 µM (active) | AC50 (Salmon testes DNA): 79 µM (active) | AC50 (Keap1/Nrf2): 47.9 µM (active)

Cc1ccc(NC(S)=NNC(=O)c2c(Cl)c(C)nn2C)cc1
IC50 [9]: > 100 µM (inactive) | IC50 [10]: > 100 µM (inactive) | IC50 [11]: > 100 µM (inactive)

Cc1ccc(-c2cc(-c3ccccc3)cc(-c3ccccc3)[n+]2-c2ccccc2)cc1.[O-][Cl+3]([O-])([O-])[O-]
EC50 (BJ [12]): 4.34 µM (active) | EC50 [13]: 6.7 µM (active) | EC50 (BJ [14]): 7.64 µM (active) | EC50 [15]: 10.7 µM (active) | AC50 (INS1): 1.89 µM (active) | EC50 (BJ [16]): 4.96 µM (active) | EC50 [17]: > 120 µM (not active) | EC50 [18]: > 120 µM (not active) | EC50 [19]: 43.8 µM (active) | EC50 [20]: 0.378 µM (active) | AC50 (CAAX prenyl protease 2): 29.1 µM (active)

CCc1sc(C(=O)Nc2cc(S(=O)(=O)N3CCOCC3)ccc2OC)cc1C
EC50 (Cannabinoid receptor 2 [21]): > 32 µM (inactive) | IC50 (Cannabinoid receptor 2 [22]): > 32 µM (inactive) | EC50 [23]: > 32 µM (inactive) | EC50 (Cannabinoid receptor 1 [24]): > 32 µM (inactive) | EC50 [25]: > 32 µM (inactive) | IC50 [26]: > 32 µM (inactive) | IC50 (Cannabinoid receptor 1 [27]): > 32 µM (inactive)

COc1cccc(NC(=O)N2CCCN(Cc3ccccc3F)C2)c1
IC50 [28]: > 150 µM (active)

CCNC(=O)NC(=O)C(C)OC(=O)c1cc2c(C)nn(Cc3ccc(Cl)cc3)c2s1 (stereo not drawn)
EC50 [29]: > 50 µM (inactive)

COc1cc(/C=N\NS(=O)(=O)c2ccccc2)cc(OC)c1OC
EC50 [30]: > 100 µM (inactive)
